Assay results reported in patent publication US20220046923A1, “HERBICIDAL CINNOLINIUM COMPOUNDS” (SYNGENTA CROP PROTECTION AG, priority 2018, published 2022).

Columns and labels:
Experiment in all cases: Post-emergence efficacy, glasshouse spray test
Assay type in all cases: in vivo
Conditions in all cases: evaluated after 13 days
[1] = system: Amaranthus palmeri (AMAPA)
Summary of the method: (§1)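 Visual damage score 13 days after spraying, 0 (no damage) to 100 (plant killed). Pot-grown plants were treated at 14 days post-sowing with aqueous spray of compound formulated in acetone/IF50, diluted with 0.25% or 1% Empicol ESC70 plus 1% ammonium sulphate; glasshouse kept at 24/16 °C, 14 h light, 65% RH.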

[2] = system: Chenopodium album (CHEAL)
Summary of the method: as §1

[3] = system: Digitaria sanguinalis (DIGSA)
Summary of the method: as §1

[4] = system: Echinochloa crus-galli (ECHCG)
Summary of the method: as §1

Eleusine indica (ELEIN) = system: Eleusine indica (ELEIN)
Summary of the method: as §1

[5] = system: Euphorbia heterophylla (EPHHL)
Summary of the method: as §1

[6] = system: Ipomoea hederacea (IPOHE)
Summary of the method: as §1

Lolium perenne (LOLPE) = system: Lolium perenne (LOLPE)
Summary of the method: as §1

Setaria faberi (SETFA) = system: Setaria faberi (SETFA)
Summary of the method: as §1

[7] = Amaranthus palmeri, post-emergence, 312 h, application rate 1000 g/Ha, read-out: Control of weed species AMAPA after post-emergence application (100=total damage to plant; 0=no damage to plant)
[8] = Chenopodium album, post-emergence, 312 h, application rate 1000 g/Ha, read-out: Control of weed species CHEAL after post-emergence application (100=total damage to plant; 0=no damage to plant)
[9] = Digitaria sanguinalis, post-emergence, 312 h, application rate 1000 g/Ha, read-out: Control of weed species DIGSA after post-emergence application (100=total damage to plant; 0=no damage to plant)
[10] = Echinochloa crus-galli, post-emergence, 312 h, application rate 1000 g/Ha, read-out: Control of weed species ECHCG after post-emergence application (100=total damage to plant; 0=no damage to plant)
[11] = Eleusine indica, post-emergence, 312 h, application rate 1000 g/Ha, read-out: Control of weed species ELEIN after post-emergence application (100=total damage to plant; 0=no damage to plant)
[12] = Euphorbia heterophylla, post-emergence, 312 h, application rate 1000 g/Ha, read-out: Control of weed species EPHHL after post-emergence application (100=total damage to plant; 0=no damage to plant)
[13] = Ipomoea hederacea, post-emergence, 312 h, application rate 1000 g/Ha, read-out: Control of weed species IPOHE after post-emergence application (100=total damage to plant; 0=no damage to plant)
[14] = Lolium perenne, post-emergence, 312 h, application rate 1000 g/Ha, read-out: Control of weed species LOLPE after post-emergence application (100=total damage to plant; 0=no damage to plant)
[15] = Setaria faberi, post-emergence, 312 h, application rate 1000 g/Ha, read-out: Control of weed species SETFA after post-emergence application (100=total damage to plant; 0=no damage to plant)

Row | Compound | pest or weed control at 1000 g/ha [1, 7] [%] | pest or weed control at 1000 g/ha [2, 8] [%] | pest or weed control at 1000 g/ha [3, 9] [%] | pest or weed control at 1000 g/ha [4, 10] [%] | pest or weed control at 1000 g/ha (Eleusine indica (ELEIN); [11]) [%] | pest or weed control at 1000 g/ha [5, 12] [%] | pest or weed control at 1000 g/ha [6, 13] [%] | pest or weed control at 1000 g/ha (Lolium perenne (LOLPE); [14]) [%] | pest or weed control at 1000 g/ha (Setaria faberi (SETFA); [15]) [%] | other results
1 | O=C(O)CC[n+]1ccc2ccccc2n1 [Compound A65] | 80 | 80 | 90 | 70 | 90 | 90 | 60 | 40 | 60 | –
2 | CCOP(=O)(O)CC[n+]1ccc2ccccc2n1 [Compound A103] | – | – | – | – | – | – | – | – | – | pest or weed control at 500 g/ha ([1]; Amaranthus palmeri, post-emergence, 312 h, application rate 500 g/Ha, read-out: Control of weed species AMAPA after post-emergence application (100=total damage to plant; 0=no damage to plant)): 20%; pest or weed control at 500 g/ha ([2]; Chenopodium album, post-emergence, 312 h, application rate 500 g/Ha, read-out: Control of weed species CHEAL after post-emergence application (100=total damage to plant; 0=no damage to plant)): 0%; pest or weed control at 500 g/ha ([3]; Digitaria sanguinalis, post-emergence, 312 h, application rate 500 g/Ha, read-out: Control of weed species DIGSA after post-emergence application (100=total damage to plant; 0=no damage to plant)): 60%; pest or weed control at 500 g/ha ([4]; Echinochloa crus-galli, post-emergence, 312 h, application rate 500 g/Ha, read-out: Control of weed species ECHCG after post-emergence application (100=total damage to plant; 0=no damage to plant)): 30%; pest or weed control at 500 g/ha (Eleusine indica (ELEIN); Eleusine indica, post-emergence, 312 h, application rate 500 g/Ha, read-out: Control of weed species ELEIN after post-emergence application (100=total damage to plant; 0=no damage to plant)): 30%; pest or weed control at 500 g/ha ([5]; Euphorbia heterophylla, post-emergence, 312 h, application rate 500 g/Ha, read-out: Control of weed species EPHHL after post-emergence application (100=total damage to plant; 0=no damage to plant)): 40%; pest or weed control at 500 g/ha ([6]; Ipomoea hederacea, post-emergence, 312 h, application rate 500 g/Ha, read-out: Control of weed species IPOHE after post-emergence application (100=total damage to plant; 0=no damage to plant)): 20%; pest or weed control at 500 g/ha (Lolium perenne (LOLPE); Lolium perenne, post-emergence, 312 h, application rate 500 g/Ha, read-out: Control of weed species LOLPE after post-emergence application (100=total damage to plant; 0=no damage to plant)): 20%; pest or weed control at 500 g/ha (Setaria faberi (SETFA); Setaria faberi, post-emergence, 312 h, application rate 500 g/Ha, read-out: Control of weed species SETFA after post-emergence application (100=total damage to plant; 0=no damage to plant)): 60%
3 | Cc1ccc2n[n+](CC(=O)[O-])cc(C)c2c1 [Compound A10] | 30 | 30 | 50 | 40 | 70 | 40 | 40 | 10 | 40 | –
4 | O=S(=O)(O)c1cccc(C[n+]2ccc3ccccc3n2)c1 [Compound A93, 3-(cinnolin-2-ium-2-ylmethyl)benzenesulfonic Acid] | – | – | – | – | – | – | – | – | – | Control of weed species AMAPA after post-emergence application (100=total damage to plant; 0=no damage to plant) ([1]; application rate 1000 g/Ha): 10; Control of weed species CHEAL after post-emergence application (100=total damage to plant; 0=no damage to plant) ([2]; application rate 1000 g/Ha): 10; Control of weed species DIGSA after post-emergence application (100=total damage to plant; 0=no damage to plant) ([3]; application rate 1000 g/Ha): 20; Control of weed species ECHCG after post-emergence application (100=total damage to plant; 0=no damage to plant) ([4]; application rate 1000 g/Ha): 20; Control of weed species ELEIN after post-emergence application (100=total damage to plant; 0=no damage to plant) (Eleusine indica (ELEIN); application rate 1000 g/Ha): 10; Control of weed species EPHHL after post-emergence application (100=total damage to plant; 0=no damage to plant) ([5]; application rate 1000 g/Ha): 50; Control of weed species IPOHE after post-emergence application (100=total damage to plant; 0=no damage to plant) ([6]; application rate 1000 g/Ha): 40; Control of weed species LOLPE after post-emergence application (100=total damage to plant; 0=no damage to plant) (Lolium perenne (LOLPE); application rate 1000 g/Ha): 10; Control of weed species SETFA after post-emergence application (100=total damage to plant; 0=no damage to plant) (Setaria faberi (SETFA); application rate 1000 g/Ha): 20
5 | O=S(=O)(O)CC[n+]1ccc2ccc(-c3ccccc3)cc2n1 [Compound A78] | 20 | 0 | 50 | 20 | 70 | 40 | 10 | 0 | 30 | –
6 | O=S(=O)([O-])CC[n+]1ccc2cccc(F)c2n1 [Compound A84] | 100 | 70 | 60 | 20 | 70 | 100 | 50 | 50 | 50 | –
7 | COP(=O)([O-])CCC[n+]1ccc2ccccc2n1 [Compound A72, 3-cinnolin-2-ium-2-ylpropyl(methoxy)phosphinate] | 70 | 70 | 50 | 50 | 70 | 50 | 100 | 50 | 60 | –
